The values that follow come from patent US6903119B1, “Amino acid derivatives and drugs containing the same as the active ingredient” (Ono Pharmaceutical Co., Ltd., priority 1998, dated 2005).

The assay concerns the target T1, N-type calcium channel (Homo sapiens, UniProt Q00975).
T1 construct: Cell line was differentiated according to the method described in FEBS Lett. (1988) 235 178-182; endogenous in cells; host or cells: unnamed cell line, differentiated per FEBS Lett. (1988) 235 178-182
Description: Determination of inhibitory activity on N-type calcium channel (Fura-2 calcium influx, KCl depolarization, with nifedipine). The conditions noted are these: compound at final concentration of 3 μM, depolarized with 80 mM KCl, Fura-2 fluorescence, read-out: Inhibitory effect on calcium flow (%). Format: cell-based. The method, then: Determination of Inhibitory Activity on N-type Calcium Channel:
Cell line was differentiated according to the method described in FEBS Lett. (1988) 235 178-182. The cell was loaded with fluoriescent reagent, Fura-2 AM (at the final concentration of 10 μM), at 37° C. for 30 minutes and suspended in Krebs-buffer containing HEPES (25 mM) to obtain the cell suspension. The obtained cell suspension was incubated in the presence or absence of the compounds of the present invention with nifedipine for 5 minutes. The cell was depolarized by adding potassium chloride solution (at the final concentration of 80 mM) thereto and then a fluorescence intensity at the emission wavelength of 500 nm excited by the UV of 340 nm and 380 nm alternately was measured using the intracellular calcium analyzer (Nippon Bunko Co., CAF-110). The inhibitory activity of the compound of the present invention (at the final concentration of 3 μM) on calcium influx into the cell was calculated from the difference in changing the fluorescence intensity at peak (ΔR) according to the following equation. [formula]

Structures can show the parent of a compound that is named as a salt.

T1 sequence (Q00975 whole entry): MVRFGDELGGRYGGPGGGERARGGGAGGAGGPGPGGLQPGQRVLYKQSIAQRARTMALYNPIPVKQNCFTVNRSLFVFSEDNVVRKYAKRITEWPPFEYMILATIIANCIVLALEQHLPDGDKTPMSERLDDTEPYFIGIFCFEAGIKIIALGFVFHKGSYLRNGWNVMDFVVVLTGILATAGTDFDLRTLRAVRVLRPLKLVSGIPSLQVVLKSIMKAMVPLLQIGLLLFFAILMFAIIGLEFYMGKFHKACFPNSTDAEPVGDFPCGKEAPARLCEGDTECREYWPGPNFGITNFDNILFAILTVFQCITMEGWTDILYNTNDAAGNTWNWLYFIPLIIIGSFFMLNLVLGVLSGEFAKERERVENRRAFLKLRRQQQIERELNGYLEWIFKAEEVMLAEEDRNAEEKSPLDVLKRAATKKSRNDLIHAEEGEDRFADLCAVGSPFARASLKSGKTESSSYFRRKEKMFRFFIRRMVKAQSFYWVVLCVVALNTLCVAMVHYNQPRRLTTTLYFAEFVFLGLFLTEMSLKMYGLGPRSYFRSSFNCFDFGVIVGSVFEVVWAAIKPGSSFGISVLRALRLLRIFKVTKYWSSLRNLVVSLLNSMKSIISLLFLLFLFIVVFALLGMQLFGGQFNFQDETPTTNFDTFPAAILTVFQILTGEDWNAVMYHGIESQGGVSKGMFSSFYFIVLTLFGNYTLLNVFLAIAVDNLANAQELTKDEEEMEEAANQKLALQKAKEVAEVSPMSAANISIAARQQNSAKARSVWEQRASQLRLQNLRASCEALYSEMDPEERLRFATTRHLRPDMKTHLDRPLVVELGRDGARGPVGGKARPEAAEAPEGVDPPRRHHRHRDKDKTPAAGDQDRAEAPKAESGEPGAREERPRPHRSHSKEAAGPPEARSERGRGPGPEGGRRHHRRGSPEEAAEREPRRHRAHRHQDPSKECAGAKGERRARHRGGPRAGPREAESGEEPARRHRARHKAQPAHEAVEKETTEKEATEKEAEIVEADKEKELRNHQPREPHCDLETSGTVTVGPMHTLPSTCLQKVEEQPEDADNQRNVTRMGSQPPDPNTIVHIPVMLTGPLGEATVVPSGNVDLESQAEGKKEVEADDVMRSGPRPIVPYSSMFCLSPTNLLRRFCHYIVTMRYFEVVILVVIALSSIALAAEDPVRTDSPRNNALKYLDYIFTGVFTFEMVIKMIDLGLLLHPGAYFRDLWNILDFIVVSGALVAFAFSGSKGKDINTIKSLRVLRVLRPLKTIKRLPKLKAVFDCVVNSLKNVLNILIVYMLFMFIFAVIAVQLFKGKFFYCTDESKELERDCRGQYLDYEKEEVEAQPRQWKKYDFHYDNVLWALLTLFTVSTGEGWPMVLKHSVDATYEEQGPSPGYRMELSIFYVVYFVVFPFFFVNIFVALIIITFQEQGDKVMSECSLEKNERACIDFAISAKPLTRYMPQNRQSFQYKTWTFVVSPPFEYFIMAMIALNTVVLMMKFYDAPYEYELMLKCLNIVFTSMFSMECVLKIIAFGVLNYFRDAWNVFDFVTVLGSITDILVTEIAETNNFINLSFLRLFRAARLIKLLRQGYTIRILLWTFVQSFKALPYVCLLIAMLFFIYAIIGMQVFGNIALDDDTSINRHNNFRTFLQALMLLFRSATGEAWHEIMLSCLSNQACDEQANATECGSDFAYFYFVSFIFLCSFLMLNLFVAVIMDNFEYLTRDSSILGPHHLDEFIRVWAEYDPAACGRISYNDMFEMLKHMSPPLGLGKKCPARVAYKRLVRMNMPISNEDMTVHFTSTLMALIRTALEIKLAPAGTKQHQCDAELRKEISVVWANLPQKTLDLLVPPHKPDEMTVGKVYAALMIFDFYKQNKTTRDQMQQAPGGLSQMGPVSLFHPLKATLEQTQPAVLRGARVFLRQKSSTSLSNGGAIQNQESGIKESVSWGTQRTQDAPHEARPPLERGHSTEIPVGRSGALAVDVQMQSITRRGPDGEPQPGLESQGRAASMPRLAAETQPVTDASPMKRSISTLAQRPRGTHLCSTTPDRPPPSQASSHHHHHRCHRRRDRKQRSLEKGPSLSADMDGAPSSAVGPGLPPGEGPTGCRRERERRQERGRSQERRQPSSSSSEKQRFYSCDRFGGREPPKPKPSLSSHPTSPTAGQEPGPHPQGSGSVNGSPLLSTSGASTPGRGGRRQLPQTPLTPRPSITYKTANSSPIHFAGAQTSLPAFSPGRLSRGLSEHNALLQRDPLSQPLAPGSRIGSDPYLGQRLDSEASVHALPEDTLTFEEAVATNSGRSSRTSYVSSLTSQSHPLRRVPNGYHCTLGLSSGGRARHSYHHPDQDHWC

Turning to `COCCOC(=O)N1CSC[C@H]1C(=O)N[C@@H](CSCC1CCCCC1)C(=O)NC1CCN(Cc2ccccc2)CC1` [compound 11], the inhibition at 3 µM worked out at 81%.

As for `CC(C)(C)CC(=O)N1CSC[C@H]1C(=O)N[C@@H](CSCC1CCCCC1)C(=O)NC1CCN(Cc2ccccc2)CC1` [11 (2), (2R)-N-(1-benzylpiperidin-4-yl)-3-cyclohexylmethylthio-2-((4R)-3-(3,3-dimethylbutyryl)thiazolidin-4-ylcarbonylamino)propanamide.hydrochloride], the inhibition at 3 µM was found to be 89%.
